Consider two substances from patent publication US7435721B2, “Transport peptides such as C-terminal Erns peptide and analogues thereof” (Pepscan Systems B.V., priority 2000, dated 2008).

*: point of attachment. Biotin = O=C1N[C@H]2[C@H](CS[C@H]2CCCCC(=O)*)N1

Series [1] deals with fixed cells (Ebtr, SK6, sf-21, Caco-2 and HT-29). It is filed as cell-based.
The subject of series [2] is live cells in suspension or subconfluent monolayers. It is filed as cell-based.
The test system of the next series is human breast skin. As to conditions: human breast skin in vitro, two hours. The procedure:
(§1) Transdermal transport. The potential of the an E^rns peptide to penetrate the skin was tested by applying 150 μl 0.3-4 mM of biotinylated peptide in a chamber containing an isolated piece of “fresh” human breast skin or in a chamber which was glued on the skin of a live pig, or applying 50 μl of peptide solution on the skin with a cotton wool tip, or applying 50 μl of a peptide solution mixed with 50 μl of contact gel on the skin for 30 minutes to 120 minutes. After the incubation time, the pig was killed, the skin was cleaned and biopsied, and a biopsy was frozen in liquid nitrogen. Cryosections of the skin samples were fixed on microscopic slides with acetone and incubated with streptavidin-FITC ( 1/100) for 30 minutes.

The next series concerns skin of a live pig. As to conditions: skin of a pig in vivo. The method, then: as §1

On to “$ENARQGAARVTSWLGRQLRIAGKRLEGRSKTWFGAYA# [191-227]”, for which the “Binding to fixed cells” value in series [1] is given as “able to bind to all tested cell types”. Moreover, in the series on HeLa cells, the “Peptide concentration that inhibits cell growth” value was found to be 50 µM. Moreover, the “Peptide concentration that inhibits cell growth” value in the series with EBTr cells came out at 50 µM. In series [2], the “Time to optimal fluorescence” value amounted to 30 min and the “Translocation activity (in words)” value is given as “penetrated inside all cell types”.
With Biotin-GRQLRIAGRRLRGRSR-NH2 [MDK-20], the “Skin penetration of biotinylated peptide” value with human breast skin is “could be visualized with streptavidin-FITC in the epidermis and the dermis”. In addition, in the series with skin of a live pig, the “Skin penetration of biotinylated peptide” value is reported as “same results” and the “Time after application at which penetration into the epidermis was observed” value is 30 min. For the same substance, the “Concentration (translocation activity), optimization of E^rns peptide” value in series [2] was found to be 0.1 µM.
